Experimental data published in PubChem BioAssay (NCI).
Values joined by “and” are separate entries in the source; they are usually repeats but may differ in a detail not shown here. Identical values can stand only once.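 These data come from cells grown in 96-well plates and exposed to compound for 48 hours at five concentrations. At the GI50, growth is halved. TGI is the concentration that stops growth completely.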

What was measured:
Test in all cases: NCI anticancer screen, dose series, 48 h
BT-549 breast = tested on: BT-549 breast
T-47D breast = tested on: T-47D breast
MDA-MB-435 = tested on: MDA-MB-435
HS 578T breast = tested on: HS 578T breast
MDA-N = tested on: MDA-N
KM20L2 colon = tested on: KM20L2 colon
DLD-1 colon = tested on: DLD-1 colon
DMS 273 small cell lung = tested on: DMS 273 small cell lung

Structure (SMILES) | GI50 (BT-549 breast) | TGI (BT-549 breast) | GI50 (T-47D breast) | TGI (T-47D breast) | GI50 (MDA-MB-435) | TGI (MDA-MB-435) | GI50 (HS 578T breast) | TGI (HS 578T breast) | TGI (MDA-N) [µM] | TGI (KM20L2 colon) [µM] | TGI (DLD-1 colon) [µM] | TGI (DMS 273 small cell lung) [µM] | GI50 (KM20L2 colon) [µM] | GI50 (DLD-1 colon) [µM]
Cc1cc(O)c(C2=NN(c3ccc(S(N)(=O)=O)cc3)C(c3ccc(N(C)C)cc3)C2)c(C)c1Cl (centres undefined) | 15.4 µM | 43.3 µM | 5.72 µM | 19.7 µM | 13.4 µM | 31 µM | 23 µM | 62.3 µM | – | – | – | – | – | –
CCn1cc(-c2ccnc3[nH]ccc23)c(-c2cccc(NC(=O)Nc3ccc(OCc4ccccc4)cc3)c2)n1 | > 21.9 µM | > 25 µM | 6.65 µM | > 25 µM | 11 µM | > 25 µM | 4.85 µM | > 25 µM | – | – | – | – | – | –
CN1CCN(c2ccc(Nc3nc(N)c(C(=O)c4ccc5c(c4)OCCO5)s3)cc2)CC1 | 4.71 µM | 9.46 µM | 3.69 µM | 9.7 µM | 3.44 µM | 12.2 µM | 2.32 µM | 12.2 µM | – | – | – | – | – | –
Cc1nc(CN2CCCCC2)c(O)c(=O)[nH]1 | – | > 100 µM | – | > 100 µM | – | > 100 µM | – | > 100 µM | > 100 | – | – | – | – | –
Nc1ncnc2c1c(-c1cccc(OCc3ccccc3)c1)cn2C1CC(CN2CCC2)C1 (centres undefined) | 2.57 µM and 5.84 µM | 6.91 µM and > 10 µM | 2.84 µM and 2.79 µM | 12.1 µM and > 10 µM | 1.21 µM and 1.49 µM | 3.12 µM and 6.89 µM | 2.97 µM and 1.57 µM | 24.8 µM and 5.8 µM | – | – | – | – | – | –
O=C(c1ccccc1)c1oc2ccc(Br)cc2c1-c1cnn(-c2ccccc2)c1 | – | – | – | – | – | – | – | – | – | > 100 | > 100 | > 100 | – | –
CCN(CC)CCCC(C)Nc1nc(C)cc(Nc2ccc3nc(C)cc(N)c3c2)n1 (centres undefined) | 19.2 µM | 56.7 µM | 28.6 µM | 99.4 µM | 14.5 µM | 29.5 µM | 24.6 µM | 65.1 µM | – | – | – | – | – | –
Cc1cc2cn3c4ccc(O)cc4[nH]c(=O)c3c2cc1C | – | – | – | – | – | 0.0121 µM | – | – | – | – | – | – | – | –
O=[N+]([O-])/C=C/c1cc2ccccc2[nH]1 | – | 29.5 µM | – | 33.9 µM | – | 6.95 µM | – | 50 µM | 12.1 | – | – | – | – | –
O=C(O)CCC/C=C\C[C@H]1C=CC(=O)/C1=C/C[C@@H](O)CCc1cccc(C(F)(F)F)c1 | 2.83 µM | 11.3 µM | 2.82 µM | 17.5 µM | 1.82 µM | 4.94 µM | 13.7 µM | 71.2 µM | – | – | – | – | – | –
COC(=O)Nc1nc2ccc(C(=O)c3ccc(N(C)C4COC4)cc3)cc2[nH]1 | 2.08 µM | > 100 µM | – | – | – | – | 0.358 µM | > 100 µM | – | – | – | – | – | –
CC(=O)O[C@H]1CCC2[C@@H]3CCC4=C(O)C(=O)C(C#N)C[C@]4(C)C3CC[C@@]21C (some centres undefined) | – | – | – | – | – | – | – | – | – | > 100 | > 100 | > 100 | – | –
COC(=O)NC1(NC(=O)OC)NC(=O)c2cc(OC)c(OC)c(OC)c2N1 | – | > 100 µM | – | > 100 µM | – | – | – | 67.7 µM | 16.9 | – | – | – | – | –
COc1cc(Nc2ncc(F)c(Nc3ccc4c(n3)NC(=O)C(C)(C)O4)n2)cc(OC)c1OC | 3.24 µM | > 10 µM | – | > 100 µM | > 10 µM | > 10 µM | 0.218 µM and 0.787 µM | – | – | – | – | – | – | –
CCOC(=O)C(=O)Nc1ccc(Cl)cc1C | – | – | – | – | – | – | – | – | – | > 100 | > 100 | > 100 | – | –
O=C(Nc1cccc(Cc2cccc(NC(=O)c3ccccc3)c2)c1)c1ccccc1 | – | – | – | – | – | – | – | – | – | > 100 | > 100 | > 100 | – | –
NCCN.NCCN.O=C[O-].O=C[O-].[Co+3].[O-][Cl+3]([O-])([O-])[O-] | – | – | – | – | – | – | – | – | – | > 100 | > 100 | – | > 100 | > 100
Fc1ccc(-c2ncn(C3CCNCC3)c2-c2ccnc(Oc3ccc(F)c(F)c3)n2)cc1 | 12.1 µM | > 25 µM | 4.7 µM | 10.2 µM | 6.44 µM | > 15.5 µM | 9.58 µM | > 18.4 µM | – | – | – | – | – | –
S=C(Nc1ccc(Cl)cc1)Nc1ccc(-c2nc3ccccc3o2)cc1 | 22.2 µM | 60.7 µM | 16.8 µM | 82.8 µM | 18.5 µM | 43.9 µM | 21.2 µM | 79.2 µM | – | – | – | – | – | –
O=C(O)c1ccc(S(=O)(=O)Nc2ccc3oc4c(c3c2)C(=O)CCC4)cc1 | > 100 µM | > 100 µM | > 100 µM | > 100 µM | > 100 µM | > 100 µM | > 100 µM | > 100 µM | – | – | – | – | – | –
COc1cc2c3c(n(CCCNCCCNCCCNCCCN)c(=O)c2cc1OC)-c1cc2c(cc1C3=O)OCO2 | 2.2 µM | 6.44 µM | 2.36 µM | > 100 µM | 1.45 µM | 3.18 µM | 2.78 µM | 8.42 µM | – | – | – | – | – | –
CCN1C2=NCCN2S(=O)(=O)c2ccccc21 | – | > 100 µM | – | > 100 µM | – | > 100 µM | – | > 100 µM | > 100 | – | – | – | – | –
Cc1[nH]c2ccccc2c1-c1cc(-c2cc(-c3c(C)[nH]c4ccccc34)nc(N)n2)nc(N)n1 | – | > 100 µM | – | > 100 µM | – | > 100 µM | – | > 100 µM | > 100 | – | – | – | – | –
Cc1cc(Nc2c3ccccc3nc3ccccc23)ccc1NS(C)(=O)=O | 10.3 µM | 22.5 µM | 5.51 µM | 24.5 µM | 4.26 µM | 25.4 µM | 2.45 µM | 11.7 µM | – | – | – | – | – | –
OC(COc1ccc(F)cc1)Cn1cnc2c(Cl)ncnc21 (centres undefined) | > 100 µM | > 100 µM | > 100 µM | > 100 µM | 41.6 µM | > 100 µM | 37.9 µM | > 100 µM | – | – | – | – | – | –
CN1C(=O)[C@@H](NC(=O)[C@H](CCC(F)(F)F)[C@H](CCC(F)(F)F)C(N)=O)N=C(c2ccccc2)c2ccccc21 | 88.8 µM | > 100 µM | 46.2 µM | > 100 µM | 85.6 µM | > 100 µM | > 100 µM | > 100 µM | – | – | – | – | – | –
O=C(/C=C/C=C/c1c(C2CC2)nc2ccccc2c1-c1ccc(F)cc1)c1cccs1 | 1.59 µM | 5.07 µM | 0.718 µM | 65.6 µM | – | – | 3.68 µM | > 100 µM | – | – | – | – | – | –
O=C(Nc1ccccc1O)c1ccc(CNc2ccnc(C(F)(F)F)c2)cc1 | 3.43 µM | 50 µM | 2.5 µM | 24.8 µM | 3.47 µM | 20.9 µM | 2.59 µM | 32.9 µM | – | – | – | – | – | –
